# Measured values taken from ChEMBL document CHEMBL3992516, “Synthesis and SAR evaluation of novel thioridazine derivatives active against drug-resistant tuberculosis” (Eur J Med Chem, 2017).
# System: Mycobacterium tuberculosis variant bovis
# Assay: Antimycobacterial activity against Mycobacterium bovis BCG Pasteur ATCC 35734 by microplate alamar blue assay
# Format: functional
row,Compound,MIC
1,NNC(=O)c1ccncc1 [ISONIAZID],0.063 µg/mL
2,CN1CCN(CCCn2ccc3ccccc32)CC1,> 64 µg/mL
3,CSc1ccc2c(c1)N(CCCN1CCSCC1)c1ccccc1S2,> 64 µg/mL
4,c1ccc2c(c1)Sc1ccccc1N2CCC1CCCCN1 (stereo unspecified),> 64 µg/mL
5,CSc1ccc2c(c1)N(CCCN1CCN(C)CC1)c1ccccc1S2,8 µg/mL
6,CSc1ccc2c(c1)N(CCCN1CCN(C3C4CC5CC(C4)CC3C5)CC1)c1ccccc1S2 (stereo unspecified),> 64 µg/mL
7,c1ccc(N2CCN(CCCN3c4ccccc4Sc4ccccc43)CC2)cc1,> 64 µg/mL
8,CCCN1CCCCC1CCN1c2ccccc2Sc2ccc(SC)cc21 (stereo unspecified),64 µg/mL
9,CSc1ccc2c(c1)N(CCCN1CCN(c3ccccc3)CC1)c1ccccc1S2,> 64 µg/mL
10,CN1CCCCC1CCn1cnc2ccccc21 (stereo unspecified),> 64 µg/mL
11,CN1CCN(CCCN2c3ccccc3Sc3ccccc32)CC1 [PERAZINE],64 µg/mL
12,c1ccc2c(c1)c1ccccc1n2CCC1CCCCN1 (stereo unspecified),> 64 µg/mL
13,CN1CCCCC1CCN1c2ccccc2Sc2ccc(Cl)cc21 (stereo unspecified),8 µg/mL
14,Clc1ccc2c(c1)N(CCCN1CCSCC1)c1ccccc1S2,> 64 µg/mL
15,c1ccc2c(c1)ccn2CCC1CCCCN1 (stereo unspecified),64 µg/mL
16,CSc1ccc2c(c1)N(CCCN1CCN(C34CC5CC(CC(C5)C3)C4)CC1)c1ccccc1S2,64 µg/mL
17,CSc1ccc2c(c1)N(CCC1CCCCN1C(C)C)c1ccccc1S2 (stereo unspecified),> 64 µg/mL
18,CSc1ccc2c(c1)N(C(=O)CN1CCN(C)CC1)c1ccccc1S2,> 64 µg/mL
19,CN1CCCCC1CCn1c2ccccc2c2ccccc21 (stereo unspecified),> 64 µg/mL
20,CN1CCCCC1CCN1c2ccccc2Sc2ccccc21 (stereo unspecified),64 µg/mL
21,Clc1ccc2c(c1)N(CCC1CCCCN1)c1ccccc1S2 (stereo unspecified),5.3 µg/mL
22,c1ccc2c(c1)ncn2CCC1CCCCN1 (stereo unspecified),> 64 µg/mL
23,CSc1ccc2c(c1)N(CCC1CCCCN1)c1ccccc1S2 (stereo unspecified),8 µg/mL
24,CSc1ccc2c(c1)N(CCC1CCCCN1Cc1ccccc1)c1ccccc1S2 (stereo unspecified),8 µg/mL
25,CSc1ccc2c(c1)N(CCC1CCCCN1C)c1ccccc1S2 (stereo unspecified) [THIORIDAZINE],16 µg/mL
26,Clc1ccc2c(c1)N(CCCN1CCN(c3ccccc3)CC1)c1ccccc1S2,> 64 µg/mL
